Data: article PMC6172212, “Structural Analysis of Inhibitor Binding to CAMKK1 Identifies Features Necessary for Design of Specific Inhibitors” (Scientific Reports, 2018)
Where a name gives a salt, the structure may show the parent alone.

These compounds were tested against T1, CAMKK1 kinase domain (CAMKK1-KD, Gln124-Lys411) (Homo sapiens, UniProt Q8N5S9) (assay: Differential scanning fluorimetry (DSF) screen of a kinase inhibitor library against CAMKK1-KD). Details: DSF, 1 μM CAMKK1-KD, compound 10 µM; mean and standard error from triplicate measurements.
T1 construct: The kinase domain (Gln124 to Lys411) was amplified using the primers; 6xHis (TEV-cleavable) (N, cleaved yes); made in house; host or cells: Escherichia coli BL21(DE3)-R3 co-expressing λ-phosphatase
Format: binding
Description: DSF measurements were made in a 384-well plate.
The compounds, previously solubilized in DMSO, were used at 10 µM final concentration and 0.1% DMSO. Plates were sealed using optically clear films and transferred to a QuantStudio 6 qPCR instrument (Applied Biosystems). […] Protein in 0.1% DMSO was used as a reference.

T1 sequence (Q8N5S9 124-411): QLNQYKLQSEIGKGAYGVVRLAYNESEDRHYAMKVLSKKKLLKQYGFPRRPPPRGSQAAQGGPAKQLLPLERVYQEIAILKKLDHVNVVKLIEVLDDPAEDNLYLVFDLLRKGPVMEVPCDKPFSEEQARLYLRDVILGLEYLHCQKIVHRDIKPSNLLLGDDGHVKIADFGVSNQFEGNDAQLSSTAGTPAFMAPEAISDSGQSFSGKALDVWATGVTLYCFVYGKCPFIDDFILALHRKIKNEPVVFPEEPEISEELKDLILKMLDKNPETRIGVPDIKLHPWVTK

| ΔTm (°C) CAMKK1 [°C] | Compound |
| --- | --- |
| 11.5 ± 0.3 | COc1cc(N2CCC(N)CC2)ccc1Nc1ncc(Cl)c(-c2c[nH]c3ccccc23)n1 [AZD3463] |

Same assay, conditions: DSF, 1 μM CAMKK1-KD, compound 10 µM; mean and standard error from triplicate measurements; read-out: ΔTm (°C) CAMKK1

| ΔTm at 10 µM [°C] | Compound |
| --- | --- |
| 7.7 ± 0.8 | CC[C@@H]1C(=O)N(C)c2cnc(Nc3ccc(C(=O)N[C@H]4CC[C@H](N5CCN(CC6CC6)CC5)CC4)cc3OC)nc2N1C(C)C [Volasertib (BI 6727), Volasertib] |
| 5.7 ± 1.2 | C1=C/COCc2cc(ccc2OCCN2CCCC2)Nc2nccc(n2)-c2cccc(c2)COC/1 [Pacritinib (SB1518), Pacritinib] |
| 2.6 ± 3.1 | COc1cc2nccc(Oc3ccc(NC(=O)Nc4cc(C)on4)c(Cl)c3)c2cc1OC [Tivozanib (AV-951), Tivozanib] |

Same assay, conditions: DSF, 1 μM CAMKK1-KD, compound 10 µM; supplement

| Mean ΔTm (°C) | Compound |
| --- | --- |
| 3.4 | CN1CCC(CNc2ccc3ncc(-c4cccc(OC(F)(F)F)c4)n3n2)CC1 [SGI-1776 free base] |
| 4.3 | O=C(Nc1cccc(Nc2ncc(Br)c(NCCc3cnc[nH]3)n2)c1)N1CCCC1 [BX-912] |
| 5.0 | COc1cc2nccc(Oc3ccc(NC(=O)C4(C(=O)Nc5ccc(F)cc5)CC4)cc3)c2cc1OC [Cabozantinib (XL184), Cabozantinib] |
| 5.7 | Cc1[nH]nc2ccc(-c3cncc(OC[C@@H](N)Cc4ccccc4)c3)cc12 [A-674563] |
| 5.8 | CS(=O)(=O)c1cccc(CNc2nc(Nc3ccc4c(c3)CCC(=O)N4)ncc2C(F)(F)F)c1 [PF-573228] |
| 4.1 | C=CC(=O)Nc1cccc(Sc2nc(Nc3ccc(N4CCN(C)CC4)cc3)ncc2Cl)c1 [WZ8040] |
| 3.6 | Cc1cnc(Nc2ccc(N3CCN(C)CC3)cc2)nc1Nc1cccc(S(=O)(=O)NC(C)(C)C)c1 [TG101209] |
| 3.0 | O=C(NCc1ccccc1)c1csc(Nc2ccncn2)n1 [Thiazovivin] |
| 2.0 | O=C(c1cccc(Cl)c1F)N1CCN(Cc2cccc(Nc3nccs3)n2)CC1 [MK-8745] |
| 4.8 | COc1cc(C(=O)NC2CCN(C)CC2)ccc1Nc1ncc2c(n1)N(C1CCCC1)CC(F)(F)C(=O)N2C [Ro3280] |
| 3.6 | CC(C)CCN1c2nc(Nc3cc(F)c(O)c(F)c3)ncc2N(C)C(=O)C1C (stereo not drawn) [BI-D1870] |
| 5.6 | CN(c1ncccc1CNc1nc(Nc2ccc3c(c2)CC(=O)N3)ncc1C(F)(F)F)S(C)(=O)=O [PF-562271] |
| 3.1 | C=CC(=O)Nc1cccc(Oc2nc(Nc3ccc(N4CCN(C)CC4)cc3)ncc2Cl)c1 [WZ3146] |
| 2.7 | O=C1NC(=O)C(c2ccccc2[N+](=O)[O-])=C1Nc1ccc(O)c(Cl)c1 [SB415286] |
| 4.2 | COc1ccccc1-c1cc(Nc2cccc(CS(N)(=O)=O)c2)ncn1 [LDC000067] |
| 3.4 | CS(=O)(=O)O.Cn1cc(C2=C(c3cn(CCCSC(=N)N)c4ccccc34)C(=O)NC2=O)c2ccccc21 [Ro 31-8220 Mesylate] |
| 2.0 | COc1cc2c(Nc3ccc(NC(=O)c4ccccc4)cc3)ncnc2cc1OCCCN1CCOCC1 [ZM 447439] |
| 2.9 | O=C1Nc2cc(Br)ccc2/C1=C1/Nc2ccccc2/C1=N\O [BIO] |
| 2.1 | COc1cc2nccc(Oc3ccc(NC(=O)Nc4ccc(F)cc4F)c(F)c3)c2cc1OC [Ki8751] |
| 3.0 | CNC(=O)c1ccccc1Nc1nc(Nc2ccc(N3CCOCC3)cc2OC)ncc1Cl [TAE226 (NVP-TAE226)] |
| 3.6 | Cc1cc(N2CCOCC2)cc2[nH]c(-c3c(NC[C@@H](O)c4cccc(Cl)c4)cc[nH]c3=O)nc12 [BMS-536924] |
| 4.1 | NC(=O)c1cnc(N[C@@H]2CCCC[C@@H]2N)nc1Nc1cccc(-n2nccn2)c1 [PRT062607 (P505-15)] |
| 5.2 | CN(c1ncccc1CNc1nc(Nc2ccc3c(c2)CC(=O)N3)ncc1C(F)(F)F)S(C)(=O)=O [PF-00562271] |
| 5.2 | COc1ccc2c(Oc3ccc(NC(=O)c4c(C)n(CC(C)(C)O)n(-c5ccccc5)c4=O)nc3)ccnc2c1 [AMG-458] |
| 4.8 | O=C1NC(=O)/C(=C/c2ccc(-c3ccc(F)cc3O)o2)S1 [AS-252424] |
| 3.1 | CN1CCN(c2ccc3nc(-c4c(N)c5c(F)cccc5[nH]c4=O)[nH]c3c2)CC1 [Dovitinib (TKI-258), Dovitinib] |
| 5.4 | O=C1Nc2ccc(I)cc2/C1=C/c1cc(Br)c(O)c(Br)c1 [GW5074] |
| 5.6 | O=C(NCc1cccc(O)c1)Nc1nc(-c2ccncc2)cs1 [RKI-1447] |

| Compound | Mean ΔTm (°C) |
| --- | --- |
| O=c1[nH]c2ccc(Cl)cc2c(N[C@@H]2CN3CCC2CC3)c1-c1nc2ccccc2[nH]1 [CHIR-124] | 5.5 |
| CN(C)CCCn1cc(C2=C(c3c[nH]c4ccccc34)C(=O)NC2=O)c2ccccc21 [GF109203X] | 2.4 |
| AZD4547 | 5.9 |

Same assay, conditions: DSF, 1 μM CAMKK1-KD, compound 10 µM; supplement; read-out: Mean ΔTm (°C)

| ΔTm at 10 µM [°C] | Compound |
| --- | --- |
| 3.8 | Cc1cc(Nc2nc(N[C@@H](C)c3ncc(F)cn3)ncc2Cl)n[nH]1 [AZD1480] |
| 3.6 | Nc1nc(Nc2ccc(S(N)(=O)=O)cc2)nn1C(=O)c1c(F)cccc1F [JNJ-7706621] |
| 5.2 | COc1cc2nccc(Oc3ccc(NC(=O)C4(C(=O)Nc5ccc(F)cc5)CC4)cc3)c2cc1OC [Cabozantinib malate (XL184), Cabozantinib malate] |
| 3 | CC(C)CC(=O)Nc1[nH]nc2c1CN(C(=O)C1CCN(C)CC1)C2(C)C [PHA-793887] |
| 4.4 | Cc1cc(Nc2nc(N[C@@H](C)c3ccc(F)cc3)c(C#N)cc2F)[nH]n1 [AZ 960] |
| 4.1 | COc1ccc(Cl)c(Nc2nc3ccccc3nc2NS(=O)(=O)c2cccc(NC(=O)C(C)(C)N)c2)c1 [XL147] |
| 4.6 | Cc1cc(Nc2cc(CN3CCOCC3)c3nc(C)c(Cc4ccc(Cl)cc4F)n3n2)n[nH]1 [LY2784544] |
| 5.6 | O=C(NCCCNc1nc(Nc2cccc(NC(=O)N3CCCC3)c2)ncc1I)c1cccs1 [BX-795] |
| 6.7 | CCN1CCN(Cc2ccc(Nc3ncc(F)c(-c4cc(F)c5nc(C)n(C(C)C)c5c4)n3)nc2)CC1 [LY2835219] |
| 3.2 | CCOc1cc2ncc(C#N)c(Nc3ccc(F)c(Cl)c3)c2cc1NC(=O)/C=C/CN(C)C [Pelitinib (EKB-569), Pelitinib] |
| 3.9 | Cc1cc(Nc2ncc(Cl)c(Nc3ccccc3S(=O)(=O)C(C)C)n2)c(OC(C)C)cc1C1CCNCC1 [LDK378] |
| 5 | CCS(=O)(=O)c1cccc(-c2cc(C(=O)NC3CCN(C)CC3)c(C)c3[nH]c4ncc(C)cc4c23)c1 [TAK-901] |
| 3.4 | CN(C)C/C=C/C(=O)Nc1cc2c(Nc3ccc(F)c(Cl)c3)ncnc2cc1O[C@H]1CCOC1 [Afatinib (BIBW2992), Afatinib] |
| 2.6 | Cc1cc(Nc2cc(N3CCN(C)CC3)nc(/C=C/c3ccccc3)n2)n[nH]1 [ENMD-2076] |
| 3.8 | CO[C@@H](C(=O)N1Cc2n[nH]c(NC(=O)c3ccc(N4CCN(C)CC4)cc3)c2C1)c1ccccc1 [Danusertib (PHA-739358), Danusertib] |
| 3.6 | NC(=O)Nc1cc(-c2cccc(F)c2)sc1C(=O)N[C@H]1CCCNC1 [AZD7762] |
| 3.4 | Cc1ncc(-c2ccnc(Nc3ccc(S(C)(=O)=O)cc3)n2)n1C(C)C [AZD5438] |
| 2.6 | C=CC(=O)Nc1cc(Nc2nccc(-c3cn(C)c4ccccc34)n2)c(OC)cc1N(C)CCN(C)C [AZD9291] |
| 5.6 | O=C(Nc1c[nH]nc1-c1nc2ccc(CN3CCOCC3)cc2[nH]1)NC1CC1 [AT9283] |
| 2.3 | COc1cc2c(N3CCN(C(=O)Nc4ccc(OC(C)C)cc4)CC3)ncnc2cc1OCCCN1CCCCC1 [Tandutinib (MLN518), Tandutinib] |
| 3.4 | C=CC(=O)Nc1cccc(Nc2nc(Nc3ccc(N4CCN(C(C)=O)CC4)cc3OC)ncc2C(F)(F)F)c1 [CO-1686 (AVL-301)] |
| 2.7 | Cc1nc(N)sc1-c1ccnc(Nc2ccc(N3CCOCC3)cc2)n1 [CYC116] |
| 4.9 | Nc1nccc(Oc2ccc(NC(=O)c3c[nH]cc(-c4ccc(F)cc4)c3=O)cc2F)c1Cl [BMS-794833] |
| 3.4 | Cc1cnc(Nc2ccc(OCCN3CCCC3)cc2)nc1Nc1cccc(S(=O)(=O)NC(C)(C)C)c1 [TG101348 (SAR302503)] |
| 5.2 | Cc1[nH]c(/C=C2\C(=O)Nc3ccc(S(=O)(=O)Cc4c(Cl)cccc4Cl)cc32)c(C)c1C(=O)N1CCC[C@@H]1CN1CCCC1 [PHA-665752] |
| 4.9 | Cc1[nH]c(/C=C2\C(=O)Nc3ccccc32)c(C)c1CCC(=O)O [TSU-68 (SU6668)] |
| 4.1 | CNC(=O)c1nn(C)c2c1C(C)(C)Cc1cnc(Nc3ccc(N4CCN(C)CC4)cc3)nc1-2 [Milciclib (PHA-848125), Milciclib] |
| 4.7 | N#CCNC(=O)c1ccc(-c2ccnc(Nc3ccc(N4CCOCC4)cc3)n2)cc1 [CYT387] |

| Compound | ΔTm at 10 µM [°C] |
| --- | --- |
| O=c1c(O)c(-c2ccc(O)c(O)c2)oc2cc(O)cc(O)c12 [Quercetin] | 4.9 |

Same assay, conditions: read-out: Mean ΔTm (°C)

| Compound | ΔTm at 10 µM [°C] |
| --- | --- |
| O=C(Nc1cccc(Cl)c1)Nc1ncc(CCNc2ncnc3ccsc23)s1 [SNS-314 Mesylate] | 4.5 |
| CC(=O)c1c(C)c2cnc(Nc3ccc(N4CCNCC4)cn3)nc2n(C2CCCC2)c1=O [Palbociclib (PD-0332991) HCl, Palbociclib] | 4.4 |

Same assay, conditions: read-out: ΔTm (°C) CAMKK1

| Compound | ΔTm at 10 µM [°C] |
| --- | --- |
| CN[C@@H]1C[C@H]2O[C@@](C)([C@@H]1OC)n1c3ccccc3c3c4c(c5c6ccccc6n2c5c31)C(=O)NC4 [Staurosporine] | 23.7 ± 1.9 |
| CCOc1ccn(-c2ccc(F)cc2)c(=O)c1C(=O)Nc1ccc(Oc2ccnc(N)c2Cl)c(F)c1 [BMS-777607] | 7.5 ± 0.3 |
| Cc1ccc(C(=O)Nc2ccc(CN3CCN(C)CC3)c(C(F)(F)F)c2)cc1C#Cc1cnc2cccnn12 [Ponatinib (AP24534), Ponatinib] | 4.4 ± 3.1 |
